From DBAASP
In brackets after ≈: the same amount, converted by molar mass. Each block holds one compound with its values, some of them ahead of it.

Tests used:
Test in all cases: ≥ marks a high value that may be exact or a test limit, other limits are often not marked, values filed in µg/mL are converted to µM
[1] = test system: Micrococcus luteus ATCC 10240
Escherichia coli BL21AI = test system: Escherichia coli BL21AI
Candida albicans C627 = test system: Candida albicans C627
[2] = test system: Escherichia coli ESBL 63103
[3] = test system: Pseudomonas aeruginosa H103
[4] = test system: Pseudomonas aeruginosa LES400
[5] = test system: Staphylococcus aureus C623
[6] = test system: Staphylococcus aureus ATCC 25923
[7] = test system: Pseudomonas aeruginosa 213
[8] = test system: Enterococcus faecium mic80
[9] = test system: Salmonella enterica subsp. enterica serovar Typhimurium ATCC 14028
[10] = test system: Bacillus cereus ATCC 11778
[11] = test system: Klebsiella aerogenes ATCC 13048
[12] = test system: Escherichia coli ATCC 25922
[13] = test system: Staphylococcus aureus ATCC 29213
[14] = test system: Bacillus anthracis Sterne 34F2
[15] = test system: Bacillus subtilis ATCC 9372
[16] = test system: Burkholderia thailandensis
Serratia marcescens = test system: Serratia marcescens
Candida albicans = test system: Candida albicans
Escherichia coli = test system: Escherichia coli
Streptococcus pneumoniae = test system: Streptococcus pneumoniae
Pseudomonas putida = test system: Pseudomonas putida
Salmonella typhimurium = test system: Salmonella typhimurium
Streptococcus mutans = test system: Streptococcus mutans
Staphylococcus aureus = test system: Staphylococcus aureus
Saccharomyces cerevisiae = test system: Saccharomyces cerevisiae
Bacillus subtilis = test system: Bacillus subtilis
Cryptococcus neoformans = test system: Cryptococcus neoformans
[17] = test system: Mycobacterium tuberculosis H37Rv
[18] = test system: Staphylococcus aureus ATCC 43300
[19] = test system: Salmonella enterica subsp. enterica serovar Enteritidis
Salmonella sp. = test system: Salmonella sp.
Yersinia enterocolitica = test system: Yersinia enterocolitica
Candida albicans MDM8 = test system: Candida albicans MDM8
Micrococcus luteus A270 = test system: Micrococcus luteus A270
Escherichia coli SBS 363 = test system: Escherichia coli SBS 363

MIC [1]: ≥ 61.8 µM
MIC (Escherichia coli BL21AI): ≥ 61.8 µM
SMILES: CC[C@H](C)[C@H](NC(=O)[C@H](Cc1ccc(O)cc1)NC(=O)[C@@H](NC(=O)[C@@H]1CCCN1C(=O)[C@H](CCCN=C(N)N)NC(=O)[C@H](CC(N)=O)NC(=O)[C@H](CC(N)=O)NC(=O)CN)C(C)C)C(=O)N1CCC[C@H]1C(=O)N[C@@H](CCC(N)=O)C(=O)N1CCC[C@H]1C(=O)N[C@@H](CCCN=C(N)N)C(=O)N1CCC[C@H]1C(=O)N1CCC[C@H]1C(=O)N[C@@H](Cc1cnc[nH]1)C(=O)N1CCC[C@H]1C(=O)N[C@@H](C)C(=O)N[C@@H](CC(C)C)C(N)=O [GNNRPVYIPQPRPPHPAL]

MIC (Candida albicans C627): ≥ 91.1 µM
MIC [2]: ≥ 45.5 µM
MIC [3]: ≥ 91.1 µM
MIC [4]: ≥ 91.1 µM
MIC [5]: 22.8 µM (≈ 32 µg/mL)
MIC [6]: 22.8 µM (≈ 32 µg/mL)
MIC [7]: ≥ 91.1 µM
MIC [8]: ≥ 45.5 µM
SMILES: CC[C@H](C)[C@H](N)C(=O)N[C@@H](CCCCN)C(=O)N[C@@H](CCCCN)C(=O)N[C@@H](CCCN=C(N)N)C(=O)N[C@@H](Cc1c[nH]c2ccccc12)C(=O)N[C@@H](Cc1c[nH]c2ccccc12)C(=O)N[C@@H](Cc1c[nH]c2ccccc12)C(=O)N[C@@H](Cc1ccccc1)C(=O)N[C@@H](CCCN=C(N)N)C(=O)O [IKKRWWWFR]

MIC [9]: > 74.2 µM
MIC [10]: ≥ 74.2 µM
MIC [11]: ≥ 74.2 µM
MIC [12]: > 74.2 µM
MIC [13]: > 74.2 µM
SMILES: CC[C@H](C)[C@H](N)C(=O)N[C@@H](CC(C)C)C(=O)NCC(=O)N[C@@H](C)C(=O)N[C@@H](C)C(=O)N[C@@H](Cc1c[nH]c2ccccc12)C(=O)N[C@@H](CC(N)=O)C(=O)NCC(=O)N[C@@H](C)C(=O)N[C@@H](CCCCN)C(=O)N[C@@H](CO)C(=O)N[C@@H](CC(C)C)C(=O)N[C@@H](Cc1ccccc1)C(N)=O [ILGAAWNGAKSLF]

SMILES: CC[C@H](C)[C@H](NC(=O)[C@H](CCCCN)NC(=O)[C@H](C)NC(=O)CNC(=O)[C@@H](NC(=O)[C@H](CCCCN)NC(=O)[C@@H](NC(=O)[C@H](CCCCN)NC(=O)[C@H](C)NC(=O)CNC(=O)[C@@H](NC(=O)[C@H](CCCCN)NC(=O)[C@@H](NC(=O)[C@H](CCCCN)NC(=O)[C@H](C)NC(=O)CNC(=O)[C@@H](NC(=O)[C@@H](N)CCCCN)[C@@H](C)CC)[C@@H](C)CC)[C@@H](C)CC)[C@@H](C)CC)[C@@H](C)CC)C(=O)O [KIGAKIKIGAKIKIGAKI]
MIC [14]: ≥ 100 µM
MIC [15]: 31 µM (≈ 57.4 µg/mL)
MIC [16]: ≥ 50 µM

SMILES: CC[C@H](C)[C@H](NC(=O)[C@H](Cc1ccc(O)cc1)NC(=O)CNC(=O)[C@@H](NC(=O)[C@@H](NC(=O)CNC(=O)[C@@H](NC(=O)[C@H](C)NC(=O)[C@H](C)NC(=O)CNC(=O)CNC(=O)[C@@H](N)CC(C)C)[C@@H](C)O)C(C)C)[C@@H](C)CC)C(=O)N[C@@H](CO)C(=O)N[C@@H](CC(N)=O)C(=O)N[C@@H](CCC(N)=O)C(=O)N[C@H](C(=O)N[C@@H](CS)C(=O)N1CCC[C@H]1C(=O)N[C@H](C(=O)N[C@H](C(=O)N[C@@H](C)C(=O)N[C@@H](CS)C(=O)N[C@H](C(=O)N[C@@H](CCCN=C(N)N)C(=O)N[C@@H](C)C(=O)N[C@@H](CS)C(=O)O)[C@@H](C)O)[C@@H](C)O)[C@@H](C)O)[C@@H](C)O [LGGAATGVIGYISNQTCPTTACTRAC]
MIC [14]: ≥ 100 µM
MIC [15]: ≥ 100 µM
MIC [16]: ≥ 50 µM

MIC (Serratia marcescens): ≥ 48.1 µM
MIC (Candida albicans): 48.1 µM (≈ 64 µg/mL)
MIC (Escherichia coli): 24 µM (≈ 32 µg/mL)
MIC (Streptococcus pneumoniae): ≥ 48.1 µM
MIC (Pseudomonas putida): ≥ 48.1 µM
MIC (Salmonella typhimurium): 24 µM (≈ 32 µg/mL)
MIC (Streptococcus mutans): 24 µM (≈ 32 µg/mL)
MIC (Staphylococcus aureus): 48.1 µM (≈ 64 µg/mL)
MIC (Saccharomyces cerevisiae): ≥ 96.2 µM
MIC (Bacillus subtilis): 24 µM (≈ 32 µg/mL)
MIC (Cryptococcus neoformans): ≥ 96.2 µM
SMILES: CC(C)C[C@H](NC(=O)[C@H](CC(C)C)NC(=O)[C@H](CCCN=C(N)N)NC(=O)[C@H](Cc1cnc[nH]1)NC(=O)[C@@H](NC(=O)[C@H](CCCN=C(N)N)NC(=O)CNC(=O)[C@@H](NC(=O)[C@@H]1CCCN1)C(C)C)C(C)C)C(=O)N[C@@H](CCCN=C(N)N)C(=O)N[C@@H](CCCCN)C(=O)O [PVGRVHRLLRK]

MIC [17]: ≥ 60.7 µM
SMILES: CC[C@H](C)[C@H](NC(=O)[C@H](CC(N)=O)NC(=O)[C@H](C)NC(=O)[C@H](CCCN=C(N)N)NC(=O)[C@H](Cc1ccccc1)NC(=O)[C@H](CCC(=O)O)NC(=O)[C@H](Cc1ccccc1)NC(=O)[C@H](Cc1ccc(O)cc1)NC(=O)[C@H](Cc1ccccc1)NC(=O)CNC(=O)[C@@H]1CCCN1C(=O)[C@@H]1CCCN1C(=O)[C@@H](N)CCCN=C(N)N)C(=O)N[C@H](C(=O)N1CCC[C@H]1C(=O)N[C@@H](Cc1ccc(O)cc1)C(=O)N[C@@H](CC(C)C)C(=O)NCC(=O)N[C@@H](CCCN=C(N)N)C(=O)N[C@@H](CCCN=C(N)N)C(=O)O)[C@@H](C)CC [RPPGFYFEFRANIIPYLGRR]

MIC [18]: > 40.4 µM
MIC [19]: ≥ 40.4 µM
MIC (Escherichia coli): > 40.4 µM
MIC (Salmonella sp.): ≥ 40.4 µM
MIC [12]: > 40.4 µM
MIC (Yersinia enterocolitica): ≥ 40.4 µM
MIC [13]: > 40.4 µM
SMILES: CC[C@H](C)[C@H](NC(=O)[C@H](CCC(N)=O)NC(=O)[C@@H](N)CCCN=C(N)N)C(=O)N[C@@H](CCCN=C(N)N)C(=O)N[C@@H](CCCN=C(N)N)C(=O)N[C@H](C(=O)N[C@H](C(=O)N[C@@H](CCC(N)=O)C(=O)N[C@@H](CCCN=C(N)N)C(N)=O)[C@@H](C)CC)[C@@H](C)CC [RQIRRIIQR]

MIC [18]: > 36 µM
MIC [19]: ≥ 36 µM
MIC (Escherichia coli): > 36 µM
MIC (Salmonella sp.): ≥ 36 µM
MIC [12]: > 36 µM
MIC (Yersinia enterocolitica): ≥ 36 µM
MIC [13]: > 36 µM
SMILES: CC[C@H](C)[C@H](NC(=O)[C@H](CCC(N)=O)NC(=O)[C@@H](N)CCCN=C(N)N)C(=O)N[C@@H](CCCN=C(N)N)C(=O)N[C@@H](CCCN=C(N)N)C(=O)N[C@@H](Cc1c[nH]c2ccccc12)C(=O)N[C@@H](Cc1c[nH]c2ccccc12)C(=O)N[C@@H](CCSC)C(=O)N[C@@H](CCCN=C(N)N)C(N)=O [RQIRRWWMR]

MIC (Candida albicans C627): 2.77 µM (≈ 4 µg/mL)
MIC [2]: 11.1 µM (≈ 16 µg/mL)
MIC [3]: 1.38 µM (≈ 2 µg/mL)
MIC [4]: 11.1 µM (≈ 16 µg/mL)
MIC [5]: 2.77 µM (≈ 4 µg/mL)
MIC [6]: 2.77 µM (≈ 4 µg/mL)
MIC [7]: 11.1 µM (≈ 16 µg/mL)
MIC [8]: 11.1 µM (≈ 16 µg/mL)
SMILES: CC(C)C[C@H](NC(=O)[C@H](Cc1c[nH]c2ccccc12)NC(=O)[C@H](CCCN=C(N)N)NC(=O)[C@H](Cc1c[nH]c2ccccc12)NC(=O)[C@H](Cc1c[nH]c2ccccc12)NC(=O)[C@H](CCCCN)NC(=O)[C@H](CCCCN)NC(=O)[C@H](Cc1c[nH]c2ccccc12)NC(=O)[C@@H](N)CCCN=C(N)N)C(=O)O [RWKKWWRWL]

MIC (Candida albicans MDM8): 0.78 µM (≈ 1.01 µg/mL)
MIC (Micrococcus luteus A270): 0.78 µM (≈ 1.01 µg/mL)
MIC (Escherichia coli SBS 363): 1.56 µM (≈ 2.01 µg/mL)
SMILES: CC[C@H](C)[C@H](NC(=O)[C@H](CC(C)C)NC(=O)[C@H](CO)NC(=O)[C@H](CC(C)C)NC(=O)[C@H](Cc1ccccc1)NC(=O)[C@@H](N)CO)C(=O)N[C@@H](CCCN=C(N)N)C(=O)N[C@@H](CCCCN)C(=O)N[C@@H](CC(C)C)C(=O)N[C@H](C(=O)N[C@H](C(N)=O)[C@@H](C)O)[C@@H](C)CC [SFLSLIRKLIT]
